Patent US11254663B2 (BRISTOL-MYERS SQUIBB COMPANY, priority 2019, dated 2022)

target: FXR (Homo sapiens (Human), UniProt Q96RI1); assay: transient human FXR/Gal4-luciferase reporter assay; type: cell-based; conditions: Gal4-hFXR fusion construct, HEK293 reporter cells; response relative to 8 μM GW-4064
Summary of the method: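 Compound exposure ran overnight at 37 °C and activity was measured as luminescence with Steady-Glo reagent. The cells were a HEK293 line stably expressing firefly luciferase under five Gal4 response elements. They were transiently transfected, one night beforehand, with a plasmid encoding Gal4 DNA-binding domain fused to the human FXR ligand-binding domain.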

FXR, sequence (Q96RI1 262-486): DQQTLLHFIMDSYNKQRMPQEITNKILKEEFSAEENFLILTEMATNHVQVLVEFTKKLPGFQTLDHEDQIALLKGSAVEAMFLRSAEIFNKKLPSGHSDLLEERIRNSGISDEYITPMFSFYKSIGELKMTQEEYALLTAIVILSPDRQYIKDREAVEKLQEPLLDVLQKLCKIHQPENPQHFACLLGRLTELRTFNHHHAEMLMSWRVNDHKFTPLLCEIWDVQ

Compared with `O=C(N(CC12CCC(c3nc(C4CC4)no3)(CC1)CC2)c1cccc(-c2ccc3ncsc3c2)c1)C12CC(F)(C1)C2` [Example 277, N-(3-(benzo[d]thiazol-6-yl)phenyl)-N-((4-(3-cyclopropyl-1,2,4-oxadiazol-5-yl)bicyclo[2.2.2]octan-1-yl)methyl)-3-fluorobicyclo[1.1.1]pentane-1-carboxamide], `O=C(N(CC12CCC(c3nc(C4CC4)no3)(CC1)CC2)c1cccc(-c2ccc(Cl)c(Cl)c2)c1)C12CC(F)(C1)C2` [Example 286, N-((4-(3-cyclopropyl-1,2,4-oxadiazol-5-yl)bicyclo[2.2.2]octan-1-yl)methyl)-N-(3′,4′-dichloro-[1,1′-biphenyl]-3-yl)-3-fluorobicyclo[1.1.1]pentane-1-carboxamide] is 10-fold higher in EC50: 35 nM for the first, 361 nM for the second.

Compared with `Cc1nc2ncc(-c3cccc(N(CC45CCC(c6nc(C7CC7)no6)(CC4)CC5)C(=O)C45CC(F)(C4)C5)c3)cc2s1` [Example 278, N-((4-(3-cyclopropyl-1,2,4-oxadiazol-5-yl)bicyclo[2.2.2]octan-1-yl)methyl)-3-fluoro-N-(3-(2-methylthiazolo[4,5-b]pyridin-6-yl)phenyl)bicyclo[1.1.1]pentane-1-carboxamide], `CCOc1ncc(-c2cccc(N(CC34CCC(c5nc(C6CC6)no5)(CC3)CC4)C(=O)C34CC(F)(C3)C4)c2)cn1` [Example 289, N-((4-(3-cyclopropyl-1,2,4-oxadiazol-5-yl)bicyclo[2.2.2]octan-1-yl)methyl)-N-(3-(2-ethoxypyrimidin-5-yl)phenyl)-3-fluorobicyclo[1.1.1]pentane-1-carboxamide] is 1.7-fold lower in EC50: 83 nM for the first, 48 nM for the second. The second is the more potent here.

Compared with `N#CC1(c2ccc(-c3cccc(N(CC45CCC(c6nc(C7CC7)no6)(CC4)CC5)C(=O)C45CC(F)(C4)C5)c3)cc2)CC1` [Example 279, N-(4′-(1-cyanocyclopropyl)-[1,1′-biphenyl]-3-yl)-N-((4-(3-cyclopropyl-1,2,4-oxadiazol-5-yl)bicyclo[2.2.2]octan-1-yl)methyl)-3-fluorobicyclo[1.1.1]pentane-1-carboxamide], `COc1ccc(-c2cccc(N(CC34CCC(c5nc(C6CC6)no5)(CC3)CC4)C(=O)C34CC(F)(C3)C4)c2)cc1` [Example 282, N-((4-(3-cyclopropyl-1,2,4-oxadiazol-5-yl)bicyclo[2.2.2]octan-1-yl)methyl)-3-fluoro-N-(4′-methoxy-[1,1′-biphenyl]-3-yl)bicyclo[1.1.1]pentane-1-carboxamide] is 6.6-fold lower in EC50: 125 nM for the first, 19 nM for the second. The second is the more potent here.

Going from `O=C(N(CC12CCC(c3nc(C4CC4)no3)(CC1)CC2)c1cccc(-c2ccc(C(F)(F)F)nc2)c1)C12CC(F)(C1)C2` [Example 280, N-((4-(3-cyclopropyl-1,2,4-oxadiazol-5-yl)bicyclo[2.2.2]octan-1-yl)methyl)-3-fluoro-N-(3-(6-(trifluoromethyl)pyridin-3-yl)phenyl)bicyclo[1.1.1]pentane-1-carboxamide] to `O=C(N(CC12CCC(c3nc(C4CC4)no3)(CC1)CC2)c1cccc(-c2nc(C(F)(F)F)ccc2F)c1)C12CC(F)(C1)C2` [Example 293, N-((4-(3-cyclopropyl-1,2,4-oxadiazol-5-yl)bicyclo[2.2.2]octan-1-yl)methyl)-3-fluoro-N-(3-(3-fluoro-6-(trifluoromethyl)pyridin-2-yl)phenyl)bicyclo[1.1.1]pentane-1-carboxamide], the EC50 rises from 308 nM to 679 nM (2.2-fold). The first is the more potent here.

First: CCOc1ccc(-c2cccc(N(CC34CCC(c5nc(C6CC6)no5)(CC3)CC4)C(=O)C34CC(F)(C3)C4)c2)cn1 [Example 281, N-((4-(3-cyclopropyl-1,2,4-oxadiazol-5-yl)bicyclo[2.2.2]octan-1-yl)methyl)-N-(3-(6-ethoxypyridin-3-yl)phenyl)-3-fluorobicyclo[1.1.1]pentane-1-carboxamide]
Second: CCOc1ccc(-c2cccc(N(CC34CCC(c5nc(C6CC6)no5)(CC3)CC4)C(=O)C34CC(F)(C3)C4)c2)nn1 [Example 283, N-((4-(3-cyclopropyl-1,2,4-oxadiazol-5-yl)bicyclo[2.2.2]octan-1-yl)methyl)-N-(3-(6-ethoxypyridazin-3-yl)phenyl)-3-fluorobicyclo[1.1.1]pentane-1-carboxamide]
The EC50 of the first is 3.5-fold lower: 66 nM for the first, 234 nM for the second. The first is the more potent here.

First: O=C(N(CC12CCC(c3nc(C4CC4)no3)(CC1)CC2)c1cccc(-c2ccc3c(c2)OC(F)(F)O3)c1)C12CC(F)(C1)C2 [Example 284, N-((4-(3-cyclopropyl-1,2,4-oxadiazol-5-yl)bicyclo[2.2.2]octan-1-yl)methyl)-N-(3-(2,2-difluorobenzo[d][1,3]dioxol-5-yl)phenyl)-3-fluorobicyclo[1.1.1]pentane-1-carboxamide]
Second: N#Cc1cc(-c2cccc(N(CC34CCC(c5nc(C6CC6)no5)(CC3)CC4)C(=O)C34CC(F)(C3)C4)c2)ccc1F [Example 294, N-(3′-cyano-4′-fluoro-[1,1′-biphenyl]-3-yl)-N-((4-(3-cyclopropyl-1,2,4-oxadiazol-5-yl)bicyclo[2.2.2]octan-1-yl)methyl)-3-fluorobicyclo[1.1.1]pentane-1-carboxamide]
The EC50 of the first is 2.5-fold lower: 233 nM for the first, 579 nM for the second.

First: CCc1ccc(-c2cccc(N(CC34CCC(c5nc(C6CC6)no5)(CC3)CC4)C(=O)C34CC(F)(C3)C4)c2)cc1 [Example 285, N-((4-(3-cyclopropyl-1,2,4-oxadiazol-5-yl)bicyclo[2.2.2]octan-1-yl)methyl)-N-(4′-ethyl-[1,1′-biphenyl]-3-yl)-3-fluorobicyclo[1.1.1]pentane-1-carboxamide]
Second: CCOc1ccc(-c2cccc(N(CC34CCC(c5nc(C6CC6)no5)(CC3)CC4)C(=O)C34CC(F)(C3)C4)c2)cc1 [Example 290, N-((4-(3-cyclopropyl-1,2,4-oxadiazol-5-yl)bicyclo[2.2.2]octan-1-yl)methyl)-N-(4′-ethoxy-[1,1′-biphenyl]-3-yl)-3-fluorobicyclo[1.1.1]pentane-1-carboxamide]
The EC50 of the first is 3.8-fold higher: 225 nM for the first, 60 nM for the second.

Going from `O=C(N(CC12CCC(c3nc(C4CC4)no3)(CC1)CC2)c1cccc(-c2ccc(F)cn2)c1)C12CC(F)(C1)C2` [Example 287, N-((4-(3-cyclopropyl-1,2,4-oxadiazol-5-yl)bicyclo[2.2.2]octan-1-yl)methyl)-3-fluoro-N-(3-(5-fluoropyridin-2-yl)phenyl)bicyclo[1.1.1]pentane-1-carboxamide] to `N#Cc1cccc(-c2cccc(N(CC34CCC(c5nc(C6CC6)no5)(CC3)CC4)C(=O)C34CC(F)(C3)C4)c2)n1` [Example 292, N-(3-(6-cyanopyridin-2-yl)phenyl)-N-((4-(3-cyclopropyl-1,2,4-oxadiazol-5-yl)bicyclo[2.2.2]octan-1-yl)methyl)-3-fluorobicyclo[1.1.1]pentane-1-carboxamide], the EC50 falls from 316 nM to 148 nM (2.1-fold). The second is the more potent here.

`O=C(N(CC12CCC(c3nc(C4CC4)no3)(CC1)CC2)c1cccc(-c2ccn3ccnc3c2)c1)C12CC(F)(C1)C2` [Example 288, N-((4-(3-cyclopropyl-1,2,4-oxadiazol-5-yl)bicyclo[2.2.2]octan-1-yl)methyl)-3-fluoro-N-(3-(imidazo[1,2-a]pyridin-7-yl)phenyl)bicyclo[1.1.1]pentane-1-carboxamide] and `O=C(N(CC12CCC(c3nc(C4CC4)no3)(CC1)CC2)c1cccc(-c2nccc(C(F)(F)F)n2)c1)C12CC(F)(C1)C2` [Example 291, N-((4-(3-cyclopropyl-1,2,4-oxadiazol-5-yl)bicyclo[2.2.2]octan-1-yl)methyl)-3-fluoro-N-(3-(4-(trifluoromethyl)pyrimidin-2-yl)phenyl)bicyclo[1.1.1]pentane-1-carboxamide] are within 1.5-fold of each other in EC50: 539 nM for the first, 439 nM for the second.
